According to patent publication US10959961B2, “Methods of administering anionic cannabinoid molecules dissolved in water” (priority 2018, dated 2021):
“And” between values parts separate entries of the source, which are not always exact repeats. Equal values may be shown once.

Tests used:
[1] = Third-party HPLC cannabinoid profile of olive oil extract of the aqueous solution (Example 24); format: physicochemical
Method: Pure cannabidiol was deprotonated and dissolved in water using a strategy similar to those described in Examples 16 and 19. Acetic acid was then added to 100 milliliters of the water, dropwise, until the purple color disappeared to reform cannabidiol. Reprotonated cannabidiol was extracted from the water using 4 milliliters of olive oil. Two 1 milliliter samples of the olive oil were sent to Botanacor Laboratories (Boulder, Colo.) for cannabinoid profile analysis using an Agilent Technologies (Santa Clara, Calif.) High Performance Liquid Chromatography instrument with a diode array detector. Botanacor Laboratories is ISO/IEC 17025 accredited for cannabinoid potency determination.

[2] = tested on: healthy, consenting adults; test: Qualitative assessment of pharmacokinetics in humans, oral self-administration (Example 23); format: in vivo, human
Method: Approximately 60 milligrams of 2-[(1R,6R)-6-isopropenyl-3-methylcyclohex-2-en-1-yl]-3-hydroxy-5-pentylphenolate prepared from crude industrial hemp extract was dissolved in water as described in Example 16, buffered to a pH of 9.1, and added to a 296 milliliter bottle of DASANI® purified water. […] A healthy, consenting adult self-administered the entire bottle of 60 milligrams of 2-[(1R,6R)-6-isopropenyl-3-methylcyclohex-2-en-1-yl]-3-hydroxy-5-pentylphenolate in water orally over 5 to 10 minutes. […] The individual described the psychoactive effect as a pleasant sensation accompanied by both an enhanced ability to focus and elevated alertness.
Approximately 30 milligrams of 2-[(1R,6R)-6-isopropenyl-3-methylcyclohex-2-en-1-yl]-3-hydroxy-5-pentylphenolate prepared from crude industrial hemp extract was dissolved in water, buffered to a pH of 9.1, and added to each of four 296 milliliter bottles of DASANI® purified water. […] Four healthy, consenting adults orally self-administered varying amounts of the four solutions over 5 to 10 minutes.

[3] = Color of phenolate in carbonate/bicarbonate buffer at variable pH (Example 19); format: physicochemical; details: approximately 1 gram-per-liter
Method: 1 gram of cannabidiol was dissolved in 6.6 milliliters of 0.5 molar potassium hydroxide in ethanol to produce 2-[(1R,6R)-6-isopropenyl-3-methylcyclohex-2-en-1-yl]-3-hydroxy-5-pentylphenolate. The solution was then diluted with 100 millimolar sodium carbonate in water to a final volume of 50 milliliters to produce a solution comprising 2-[(1R,6R)-6-isopropenyl-3-methylcyclohex-2-en-1-yl]-3-hydroxy-5-pentylphenolate at approximately 20-grams-per-liter. 0.5 milliliters of the 2-[(1R,6R)-6-isopropenyl-3-methylcyclohex-2-en-1-yl]-3-hydroxy-5-pentylphenolate solution was added to each of 25 test tubes containing 9.5 milliliters of 100 millimolar (0.1 M) carbonate/bicarbonate (CO3^2−/HCO3^−) buffer according to Table 1. Each test tube contained approximately 10 milligrams of 2-[(1R,6R)-6-isopropenyl-3-methylcyclohex-2-en-1-yl]-3-hydroxy-5-pentylphenolate at a concentration of approximately 1 gram-per-liter. pH's were confirmed by multiple different measurements.
It was expected that 2-[(1R,6R)-6-isopropenyl-3-methylcyclohex-2-en-1-yl]-3-hydroxy-5-pentylphenolate would reform cannabidiol at pH's below a threshold pH as evidenced by an expected color change from purple (indicative of 2-[(1R,6R)-6-isopropenyl-3-methylcyclohex-2-en-1-yl]-3-hydroxy-5-pentylphenolate) to colorless (indicative of cannabidiol).

[4] = Commercial viability of beverages: phenolate solution added to bottled water (Example 21); format: physicochemical
Method: 20 milliliters of water was removed from a 1 liter bottle of ESSENTIA® OVERACHIEVING H2O®. ESSENTIA® OVERACHIEVING H2O® contains purified water, sodium bicarbonate, dipotassium phosphate, magnesium sulfate, and calcium chloride, and its pH was determined to be about 9.5. The 20 milliliters of removed water was replaced with 20 milliliters of the 20 gram-per-liter solution of 2-[(1R,6R)-6-isopropenyl-3-methylcyclohex-2-en-1-yl]-3-hydroxy-5-pentylphenolate, which is described in Example 19, and the bottle was sealed using the screw-cap top of the bottle to produce a sealed container containing approximately 400 milligrams of 2-[(1R,6R)-6-isopropenyl-3-methylcyclohex-2-en-1-yl]-3-hydroxy-5-pentylphenolate. The pH of the liquid was measured and determined to be about 10.
5 milliliters of water was removed from a 500 milliliter bottle of DASANI® purified water. DANSANI® purified water contains purified water, magnesium sulfate, potassium chloride, and sodium chloride, and its pH was determined to be about 7.0. The 5 milliliters of removed water was replaced with 5 milliliters of the 20 gram-per-liter solution of 2-[(1R,6R)-6-isopropenyl-3-methylcyclohex-2-en-1-yl]-3-hydroxy-5-pentylphenolate, which is described in Example 19, and the bottle was sealed using the screw-cap top of the bottle to produce a sealed container containing approximately 100 milligrams of 2-[(1R,6R)-6-isopropenyl-3-methylcyclohex-2-en-1-yl]-3-hydroxy-5-pentylphenolate. The pH of the liquid was measured and determined to be about 9.5.
0.5 milliliters of water was removed from a 500 milliliter bottle of DASANI® purified water. […] The pH of the liquid was measured and determined to be about 8.5.

[5] = Removal of ethanol in a vacuum oven up to 157° C. (Example 15); format: physicochemical; details: oven under vacuum, ramped to 157° C.; purple taffy-like product
Method: 372 grams of crude industrial hemp extract containing approximately 65% cannabidiol was dissolved in ethanol at a weight ratio of 1:2 crude to ethanol. 43.2 grams of potassium hydroxide was slowly added to the hemp extract in ethanol, and the solution was stirred while heating at 55° C. The solution was then placed in an oven under vacuum and slowly ramped to a temperature of 157° C. over the course of approximately 1 hour, at which time heating was discontinued. The solution was then left in the oven under vacuum overnight.
The product produced by ethanol removal in an oven under vacuum was purple with a taffy-like consistency indicative of polymer formation. The product lacked appreciable solubility in water.

[6] = Adjusting the pH of the phenolate emulsion to 9.1 with sodium bicarbonate (Examples 7 and 8); format: physicochemical; details: emulsion adjusted to pH 9.1, color change and lipid phase separation
Method: 1.65 grams of carbon-filtered industrial hemp extract comprising approximately 65% cannabidiol was dissolved in 10 milliliters of 420 millimolar potassium hydroxide in ethanol to convert the cannabidiol into 2-[(1R,6R)-6-isopropenyl-3-methylcyclohex-2-en-1-yl]-3-hydroxy-5-pentylphenolate.
1 gram of cannabidiol isolate was dissolved in 10 milliliters of 380 millimolar potassium hydroxide in ethanol to convert the cannabidiol into 2-[(1R,6R)-6-isopropenyl-3-methylcyclohex-2-en-1-yl]-3-hydroxy-5-pentylphenolate.

[7] = Approximate pKa of cannabidiol by color at varying sodium bicarbonate (Example 20); format: physicochemical; details: from color change at pH 8.0 and 8.3, read-out: pKa of cannabidiol in dilute aqueous solution
Method: This example confirms that 2-[(1R,6R)-6-isopropenyl-3-methylcyclohex-2-en-1-yl]-3-hydroxy-5-pentylphenolate is viable for inclusion in beverages formulated for human consumption. 0.5 milliliters of the 20 gram-per-liter solution of 2-[(1R,6R)-6-isopropenyl-3-methylcyclohex-2-en-1-yl]-3-hydroxy-5-pentylphenolate described in Example 19 was diluted with 9.5 milliliters of distilled water comprising varying concentrations of sodium bicarbonate, and color was monitored as shown in Table 2. pH's were confirmed by multiple different measurements.
A color change was visually apparent at a pH of 8.0, and a subtle color change was visually apparent at pH of 8.3.

[8] = Dissolving salts of the phenolate in water (Examples 14 and 17); format: physicochemical; details: salt from 1.4 grams cannabidiol, dried under vacuum; 90 milliliters
Method: 1.4 grams of pure cannabidiol was dissolved in 10 milliliters of 0.5 molar potassium hydroxide in ethanol to convert the cannabidiol into 2-[(1R,6R)-6-isopropenyl-3-methylcyclohex-2-en-1-yl]-3-hydroxy-5-pentylphenolate. A potassium salt of 2-[(1R,6R)-6-isopropenyl-3-methylcyclohex-2-en-1-yl]-3-hydroxy-5-pentylphenolate was formed by drying the ethanol solution under vacuum overnight. 90 milliliters of 100 millimolar aqueous sodium carbonate was added to the potassium salt of 2-[(1R,6R)-6-isopropenyl-3-methylcyclohex-2-en-1-yl]-3-hydroxy-5-pentylphenolate.
This example describes a successful attempt to produce a salt of 2-[(1R,6R)-6-isopropenyl-3-methylcyclohex-2-en-1-yl]-3-hydroxy-5-pentylphenolate that readily dissolves in water. A first aliquot from Example 16 was lyophilized to produce salts including a potassium 2-[(1R,6R)-6-isopropenyl-3-methylcyclohex-2-en-1-yl]-3-hydroxy-5-pentylphenolate salt and a sodium 2-[(1R,6R)-6-isopropenyl-3-methylcyclohex-2-en-1-yl]-3-hydroxy-5-pentylphenolate salt. […] The water was centrifuged to remove undissolved salt and to produce an aqueous solution of 2-[(1R,6R)-6-isopropenyl-3-methylcyclohex-2-en-1-yl]-3-hydroxy-5-pentylphenolate concentrate for inclusion in beverages.

[9] = approximately 60 milligrams in 296 mL water, pH 9.1, oral over 5 to 10 minutes, one adult

C=C(C)[C@@H]1CCC(C)=C[C@H]1c1c(O)cc(CCCCC)cc1O [2-[(1R,6R)-6-isopropenyl-3-methylcyclohex-2-en-1-yl]-3-hydroxy-5-pentylphenolate]
concentration dissolved in water ([1]; worked out from the olive oil samples): about 78 milligrams per liter | onset of a perceptible psychoactive effect [2, 9]: within minutes of ingestion | time of marked perceptible psychoactive effect following ingestion [2, 9]: approximately 30 minutes | individuals reporting rapid onset of a perceptible psychoactive effect within minutes of ingestion ([2]; approximately 100 milligrams per liter, pH 9.1, varying amounts, oral over 5 to 10 minutes, four adults): Three of the four individuals | time to psychoactive effects after ingestion ([2]; dissolved in water, orally administered): less than 5 minutes | color change from purple to colorless ([3]; pH's of 9.1 and above, 0.1 M carbonate/bicarbonate buffer): No color change | appearance of the liquid ([4]; approximately 10 milligrams in 500 milliliter DASANI water, pH about 8.5): transparent and lacked discernable color | appearance of the liquid ([4]; approximately 100 milligrams in 500 milliliter DASANI water, pH about 9.5): transparent and purple | appearance of the liquid ([4]; approximately 400 milligrams in 1 liter ESSENTIA water, pH about 10): purple and transparent | stability at high temperatures [5]: unstable at high temperatures

C=C(C)[C@@H]1CCC(C)=C[C@H]1c1c(O)cc(CCCCC)cc1O [cannabidiol, 2-[(1R,6R)-6-isopropenyl-3-methylcyclohex-2-en-1-yl]-5-pentylbenzene-1,3-diol]
other cannabinoids in the olive oil samples ([1]; HPLC with diode array detector): did not detect any other cannabinoid | cannabidiol content of olive oil samples ([1]; reprotonated with acetic acid, 100 mL water extracted with 4 mL olive oil, two samples, HPLC): 0.18 % by weight and 0.21 % by weight | pKa ([6]; Example 7, from carbon-filtered industrial hemp extract, read-out: pKa of cannabidiol in water): > 9.1 | pKa of cannabidiol in water ([6]; Example 8, from cannabidiol isolate): greater than 9.1 | pKa ([3]; Example 19, dilute aqueous solutions, read-out: pKa of cannabidiol): < 9.1 | pKa [7]: 8 to 8.5

C=C(C)[C@@H]1CCC(C)=C[C@H]1c1c([O-])cc(CCCCC)cc1O.[K+] [potassium salt of 2-[(1R,6R)-6-isopropenyl-3-methylcyclohex-2-en-1-yl]-3-hydroxy-5-pentylphenolate]
dissolution in 100 millimolar aqueous sodium carbonate [8]: the majority of the salt remained in the solid phase
